Reference: ChEMBL document CHEMBL3885861, “Open TG-GATES”

Organism: Rattus norvegicus
Assay: Open TG-GATES - Regimen: Daily Repeat
Type: toxicity, organism-based, Sprague-Dawley
Design: regimen Daily Repeat, gender Male, age 6 weeks
Settings: in vivo, po, 0 mg/kg, route gavage, dose level Control; for APTT / Bas / Eos / Fbg / Hb / Ht / Lym / MCH / MCHC / MCV / Mono / Neu / PT / Plat / RBC / Ret / WBC: tissue Blood; for KIDNEY_L / KIDNEY_R / KIDNEY_TOTAL: tissue Kidney; for LIVER: tissue Liver; for A/G / ALP / ALT / AST / BUN / CRE / Ca / Cl / DBIL / GLC / IP / K / LDH / Na / PL / RALB / TBIL / TC / TG / TP / gamma-GTP: tissue Plasma

Work on `CC(C)C(=O)Nc1ccc([N+](=O)[O-])c(C(F)(F)F)c1` [FLUTAMIDE] yielded a TERMINAL_BW (72 h, time 3 day) of 224.3 g, an APTT (72 h, time 3 day) of 19 s and a Bas (72 h, time 3 day) of 0%. The Eos (72 h, time 3 day) was 1%, the Fbg (72 h, time 3 day) was 219.2 mg/dL and the Hb (72 h, time 3 day) was 13.9 g/dL. It also gave a Ht (72 h, time 3 day) of 41.8%, a Lym (72 h, time 3 day) of 79% and an MCH (72 h, time 3 day) of 21.5 pg. The MCHC (72 h, time 3 day) was 33.3%, the MCV (72 h, time 3 day) was 64.6 fL and the Mono (72 h, time 3 day) was 3%. For the same compound, the Neu (72 h, time 3 day) was 16%, the PT (72 h, time 3 day) was 12.4 s and the Plat (72 h, time 3 day) was 122.4 x10_4/uL. For the same compound, the RBC (72 h, time 3 day) was 648 x10_4/ul, the Ret (72 h, time 3 day) was 5.4% and the WBC (72 h, time 3 day) was 82.7 x10_2/uL. For the same compound, the KIDNEY_L (72 h, time 3 day) was 1 g, the KIDNEY_R (72 h, time 3 day) was 1 g and the KIDNEY_TOTAL (72 h, time 3 day) was 2 g. It also gave an LIVER (72 h, time 3 day) of 10.4 g, an A/G (72 h, time 3 day) of 1.5 and an ALP (72 h, time 3 day) of 1016 IU/L. It also gave an ALT (72 h, time 3 day) of 41.6 IU/L, an AST (72 h, time 3 day) of 72.8 IU/L and a BUN (72 h, time 3 day) of 13.6 mg/dL. It also gave a CRE (72 h, time 3 day) of 0.4 mg/dL, a Ca (72 h, time 3 day) of 10.5 mg/dL and a Cl (72 h, time 3 day) of 103.8 meq/L. It also gave a DBIL (72 h, time 3 day) of 0.09 mg/dL, a GLC (72 h, time 3 day) of 220.2 mg/dL and an IP (72 h, time 3 day) of 7.1 mg/dL. The K (72 h, time 3 day) was 4.1 meq/L, the LDH (72 h, time 3 day) was 204.4 IU/L and the Na (72 h, time 3 day) was 139.8 meq/L. It also gave a PL (72 h, time 3 day) of 139 mg/dL, an RALB (72 h, time 3 day) of 3.3 g/dL and a TBIL (72 h, time 3 day) of 0.1 mg/dL. It also gave a TC (72 h, time 3 day) of 76.2 mg/dL, a TG (72 h, time 3 day) of 71.8 mg/dL and a TP (72 h, time 3 day) of 5.5 g/dL. The gamma-GTP (72 h, time 3 day) was 0.8 IU/L, the TERMINAL_BW ([…], time 7 day) was 253 g and the TERMINAL_BW ([…], time 14 day) was 303.3 g. It also gave a TERMINAL_BW ([…], time 28 day) of 371.7 g, an APTT ([…], time 7 day) of 19.5 s and a Bas ([…], time 7 day) of 0%. For the same compound, the Eos ([…], time 7 day) was 1%, the Fbg ([…], time 7 day) was 230.6 mg/dL and the Hb ([…], time 7 day) was 13.8 g/dL. For the same compound, the Ht ([…], time 7 day) was 40.6%, the Lym ([…], time 7 day) was 81.6% and the MCH ([…], time 7 day) was 21.1 pg. For the same compound, the MCHC ([…], time 7 day) was 33.9%, the MCV ([…], time 7 day) was 62.3 fL and the Mono ([…], time 7 day) was 2.4%. It also gave a Neu ([…], time 7 day) of 14.6%, a PT ([…], time 7 day) of 12.2 s and a Plat ([…], time 7 day) of 133.9 x10_4/uL. For the same compound, the RBC ([…], time 7 day) was 652.6 x10_4/ul, the Ret ([…], time 7 day) was 4.9% and the WBC ([…], time 7 day) was 141.3 x10_2/uL. The APTT ([…], time 14 day) was 20.7 s, the Bas ([…], time 14 day) was 0% and the Eos ([…], time 14 day) was 0.8%. It also gave a Fbg ([…], time 14 day) of 227 mg/dL, a Hb ([…], time 14 day) of 14.4 g/dL and a Ht ([…], time 14 day) of 42.3%. For the same compound, the Lym ([…], time 14 day) was 80.8%, the MCH ([…], time 14 day) was 20.8 pg and the MCHC ([…], time 14 day) was 34.1%. For the same compound, the MCV ([…], time 14 day) was 60.9 fL, the Mono ([…], time 14 day) was 2.4% and the Neu ([…], time 14 day) was 15.2%. It also gave a PT ([…], time 14 day) of 12.2 s, a Plat ([…], time 14 day) of 128 x10_4/uL and an RBC ([…], time 14 day) of 695 x10_4/ul. For the same compound, the Ret ([…], time 14 day) was 4.3%, the WBC ([…], time 14 day) was 110.8 x10_2/uL and the APTT ([…], time 28 day) was 19.6 s. For the same compound, the Bas ([…], time 28 day) was 0%, the Eos ([…], time 28 day) was 0.8% and the Fbg ([…], time 28 day) was 229.6 mg/dL. It also gave a Hb ([…], time 28 day) of 15.2 g/dL, a Ht ([…], time 28 day) of 43.5% and a Lym ([…], time 28 day) of 82.8%. For the same compound, the MCH ([…], time 28 day) was 19.9 pg, the MCHC ([…], time 28 day) was 35% and the MCV ([…], time 28 day) was 56.8 fL. For the same compound, the Mono ([…], time 28 day) was 2.2%, the Neu ([…], time 28 day) was 13.6% and the PT ([…], time 28 day) was 12.2 s. The Plat ([…], time 28 day) was 107.9 x10_4/uL, the RBC ([…], time 28 day) was 765.6 x10_4/ul and the Ret ([…], time 28 day) was 2.3%. The WBC ([…], time 28 day) was 122 x10_2/uL, the KIDNEY_L ([…], time 7 day) was 1.1 g and the KIDNEY_R ([…], time 7 day) was 1.1 g. The KIDNEY_TOTAL ([…], time 7 day) was 2.2 g, the KIDNEY_L ([…], time 14 day) was 1.2 g and the KIDNEY_R ([…], time 14 day) was 1.2 g. For the same compound, the KIDNEY_TOTAL ([…], time 14 day) was 2.5 g, the KIDNEY_L ([…], time 28 day) was 1.3 g and the KIDNEY_R ([…], time 28 day) was 1.3 g. The KIDNEY_TOTAL ([…], time 28 day) was 2.7 g, the LIVER ([…], time 7 day) was 11.7 g and the LIVER ([…], time 14 day) was 13.4 g. The LIVER ([…], time 28 day) was 15 g, the A/G ([…], time 7 day) was 1.6 and the ALP ([…], time 7 day) was 743.8 IU/L. It also gave an ALT ([…], time 7 day) of 35.2 IU/L, an AST ([…], time 7 day) of 61.6 IU/L and a BUN ([…], time 7 day) of 15.6 mg/dL. It also gave a CRE ([…], time 7 day) of 0.4 mg/dL, a Ca ([…], time 7 day) of 10.7 mg/dL and a Cl ([…], time 7 day) of 103.4 meq/L. It also gave a DBIL ([…], time 7 day) of 0.09 mg/dL, a GLC ([…], time 7 day) of 214.8 mg/dL and an IP ([…], time 7 day) of 6.8 mg/dL. For the same compound, the K ([…], time 7 day) was 3.7 meq/L, the LDH ([…], time 7 day) was 167.2 IU/L and the Na ([…], time 7 day) was 141 meq/L. For the same compound, the PL ([…], time 7 day) was 140.4 mg/dL, the RALB ([…], time 7 day) was 3.6 g/dL and the TBIL ([…], time 7 day) was 0.2 mg/dL. The TC ([…], time 7 day) was 72.6 mg/dL, the TG ([…], time 7 day) was 82.6 mg/dL and the TP ([…], time 7 day) was 5.8 g/dL. For the same compound, the gamma-GTP ([…], time 7 day) was 1.2 IU/L, the A/G ([…], time 14 day) was 1.5 and the ALP ([…], time 14 day) was 842.2 IU/L. It also gave an ALT ([…], time 14 day) of 35 IU/L, an AST ([…], time 14 day) of 61.8 IU/L and a BUN ([…], time 14 day) of 14.4 mg/dL. The CRE ([…], time 14 day) was 0.4 mg/dL, the Ca ([…], time 14 day) was 10.6 mg/dL and the Cl ([…], time 14 day) was 103.2 meq/L. The DBIL ([…], time 14 day) was 0.096 mg/dL, the GLC ([…], time 14 day) was 202.2 mg/dL and the IP ([…], time 14 day) was 6.8 mg/dL. For the same compound, the K ([…], time 14 day) was 3.8 meq/L, the LDH ([…], time 14 day) was 150 IU/L and the Na ([…], time 14 day) was 141.2 meq/L. It also gave a PL ([…], time 14 day) of 133.4 mg/dL, an RALB ([…], time 14 day) of 3.5 g/dL and a TBIL ([…], time 14 day) of 0.2 mg/dL. For the same compound, the TC ([…], time 14 day) was 67 mg/dL, the TG ([…], time 14 day) was 100.4 mg/dL and the TP ([…], time 14 day) was 5.8 g/dL. The gamma-GTP ([…], time 14 day) was 0.8 IU/L, the A/G ([…], time 28 day) was 1.4 and the ALP ([…], time 28 day) was 578 IU/L. It also gave an ALT ([…], time 28 day) of 32 IU/L, an AST ([…], time 28 day) of 50 IU/L and a BUN ([…], time 28 day) of 15.8 mg/dL. It also gave a CRE ([…], time 28 day) of 0.5 mg/dL, a Ca ([…], time 28 day) of 10.3 mg/dL and a Cl ([…], time 28 day) of 104.6 meq/L. The DBIL ([…], time 28 day) was 0.072 mg/dL, the GLC ([…], time 28 day) was 226.2 mg/dL and the IP ([…], time 28 day) was 7 mg/dL. It also gave a K ([…], time 28 day) of 3.8 meq/L, an LDH ([…], time 28 day) of 121.6 IU/L and a Na ([…], time 28 day) of 140.8 meq/L. For the same compound, the PL ([…], time 28 day) was 130.2 mg/dL, the RALB ([…], time 28 day) was 3.5 g/dL and the TBIL ([…], time 28 day) was 0.1 mg/dL. For the same compound, the TC ([…], time 28 day) was 70.4 mg/dL, the TG ([…], time 28 day) was 60.8 mg/dL and the TP ([…], time 28 day) was 6 g/dL. It also gave a gamma-GTP ([…], time 28 day) of 0.8 IU/L.
